Experimental data reported in ChEMBL document CHEMBL1123908, “Endoperoxides as potential antimalarial agents” (J Med Chem, 1987).

Key:
Type in all cases: functional, organism-based
Mus musculus [1] = assay: Blood schizonticidal activity against Plasmodium berghei in mice (Mus musculus) at the dose of 160 mg/kg; Inactive; design: dose 160 mg/kg
Mus musculus [2] = assay: Blood schizonticidal activity against Plasmodium berghei in mice (Mus musculus) at the dose of 40 mg/kg; Inactive; design: dose 40 mg/kg
Mus musculus [3] = assay: Blood schizonticidal activity against Plasmodium berghei in mice (Mus musculus) at the dose of 640 mg/kg; Inactive; design: dose 640 mg/kg

CC12CCC(OC(=O)c3ccccc3)C(C)(C)C13CCC(C2)OO3 (configuration not stated)
Not Active: Activity call (Mus musculus [1]) | Blood schizonticidal activity (Mus musculus [2]) | Activity (active/inactive) (Mus musculus [3])

CCCCOC(=O)OC1CCC2(C)CC3CCC2(OO3)C1(C)C (configuration not stated)
Not Active: Activity call (Mus musculus [1]) | Blood schizonticidal activity (Mus musculus [2]) | Activity (active/inactive) (Mus musculus [3])

CC(=O)OC1CCC2(C)CC3C=C[C@]2(OO3)C1(C)C (some centres not stated)
Not Active: Activity call (Mus musculus [1]) | Blood schizonticidal activity (Mus musculus [2]) | Activity (active/inactive) (Mus musculus [3])

CC12CCC(O)C(C)(C)C13CCC(C2)OO3 (configuration not stated)
Not Active: Activity call (Mus musculus [1]) | Blood schizonticidal activity (Mus musculus [2]) | Activity (active/inactive) (Mus musculus [3])

CC12CCC(OC(=O)c3ccccc3)C(C)(C)[C@@]13C=CC(C2)OO3 (some centres not stated)
Not Active: Activity call (Mus musculus [1]) | Blood schizonticidal activity (Mus musculus [2]) | Activity (active/inactive) (Mus musculus [3])

CC(C)CCCC(C)[C@H]1CC[C@H]2C3CC=C4C[C@@H](OC(=O)OC5CCC6(C)CC7C=CC6(OO7)C5(C)C)CCC4(C)[C@H]3CCC12C (some centres not stated)
Not Active: Activity call (Mus musculus [1]) | Blood schizonticidal activity (Mus musculus [2]) | Activity (active/inactive) (Mus musculus [3])

CC12CCC(O)C(C)(C)[C@@]13C=CC(C2)OO3 (some centres not stated)
Not Active: Activity call (Mus musculus [1]) | Blood schizonticidal activity (Mus musculus [2]) | Activity (active/inactive) (Mus musculus [3])

CC(=O)OC(C)CCC12OO[C@@H](C=C1C)CC2(C)C (some centres not stated)
Not Active: Activity call (Mus musculus [1]) | Blood schizonticidal activity (Mus musculus [2]) | Activity (active/inactive) (Mus musculus [3])

CC(=O)OC1CCC2(C)CC3CCC2(OO3)C1(C)C (configuration not stated)
Not Active: Activity call (Mus musculus [1]) | Blood schizonticidal activity (Mus musculus [2]) | Activity (active/inactive) (Mus musculus [3])
